Laboratory results: US20140349970A1 (ABBVIE INC., priority 2009, published 2014)

Target: T1, Syk catalytic domain (aa 356-635 with a C-terminal His-tag) (Homo sapiens, UniProt P43405)
T1 construct: His-tag (C); made in house
Assay: In vitro Syk kinase activity measured by trFRET, Syk catalytic domain
Format: biochemical
Conditions: Syk catalytic domain (aa 356-635), trFRET, 0.001 mM ATP
Outline: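 Kinase reaction: 0.14 nM His-tagged catalytic domain, 0.2 μM biotin-TYR1 peptide, 0.001 mM ATP in 50 mM MOPSO pH 6.5 with MgCl2, MnCl2, DTT, BSA, vanadate, ~60 min at rt, then EDTA quench. Phosphoproduct detected by trFRET (Eu anti-pTyr antibody/streptavidin-APC, 665 nm emission); IC50 from signal in linear range.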

SMILES | IC50 [nM]
COCCNC(=O)Cn1cc(-c2cc3c(ncc4cnn(C)c43)[nH]2)c2cc(OC)ccc21 [N.1.28] | < 100
COc1ccc2c(c1)c(-c1cc3c(ncc4cnn(C)c43)[nH]1)cn2CC(O)CN(C)C (centres unmarked) [N.1.29] | < 100
CCc1c(-c2cccc(C(=O)NCCN3CCOCC3)c2)[nH]c2ncc3cnn(C)c3c12 [N.1.30] | 1000 to 10000
CCc1c(-c2ccc(N3CCOCC3)cc2)[nH]c2ncc3cnn(C)c3c12 [N.1.31] | 100 to 1000
CN(C)S(=O)(=O)c1cccc(-c2cc3c(ncc4cnn(C)c43)[nH]2)c1 [N.1.32] | < 100
CNS(=O)(=O)c1cccc(-c2cc3c(ncc4cnn(C)c43)[nH]2)c1 [N.1.33] | < 100
Cn1ncc2cnc3[nH]c(-c4cccc(S(=O)(=O)NCCO)c4)cc3c21 [N.1.34] | < 100
CCc1c(-c2cn(C)c3ccc(OC)cc23)[nH]c2ncc3cnn(C)c3c12 [N.1.35] | 1000 to 10000
CCc1c(-c2ccc(C(=O)NCCN3CCOCC3)cc2)[nH]c2ncc3cnn(C)c3c12 [N.1.36] | 100 to 1000
CCc1c(-c2cn(C)nc2C)[nH]c2ncc3cnn(C)c3c12 [N.1.37] | 1000 to 10000
CCc1c(-c2cnn(C)c2C)[nH]c2ncc3cnn(C)c3c12 [N.1.38] | 1000 to 10000
CCCNC(=O)c1cccc(-c2[nH]c3ncc4cnn(C)c4c3c2CC)c1 [N.1.39] | 1000 to 10000
CCc1c(-c2cccc(S(=O)(=O)N(CC)CC)c2)[nH]c2ncc3cnn(C)c3c12 [N.1.40] | 1000 to 10000
Cn1ncc2cnc3[nH]c(-c4cccc(S(=O)(=O)NCCN5CCOCC5)c4)cc3c21 [N.1.41] | 100 to 1000
COCCNS(=O)(=O)c1cccc(-c2cc3c(ncc4cnn(C)c43)[nH]2)c1 [N.1.42] | 100 to 1000
CCc1c(-c2ccc(OC)cc2)[nH]c2ncc3cnn(C)c3c12 [N.1.43] | 100 to 1000
CCc1c(-c2cnn(C)c2)[nH]c2ncc3cnn(C)c3c12 [N.1.44] | 100 to 1000
CCc1c(-c2ccc(OCCN3CCOCC3)cc2)[nH]c2ncc3cnn(C)c3c12 [N.1.45] | 100 to 1000

SMILES | IC50 [nM]
Cn1ccc2cc(-c3cc4c(ncc5cnn(C)c54)[nH]3)ccc21 [N.1.46] | 100 to 1000
Cc1ccc(-c2cc3c(ncc4cnn(C)c43)[nH]2)c(C)c1 [N.1.47] | 1000 to 10000
COc1ccc2c(c1)c(-c1nc(C3CCCCC3)n3c1cnc1[nH]ccc13)cn2C [N.1.48] | 1000 to 10000
CC(C)(O)c1ccc(-c2nc(C3CCCCC3)n3c2cnc2[nH]ccc23)cc1 [N.1.49] | < 100
Cc1nc(-c2ccc(C(C)(C)O)cc2)c2cnc3[nH]ccc3n12 [N.1.50, 2-(4-(1-methyl-6H-imidazo[1,5-a]pyrrolo[2,3-e]pyrazin-3-yl)phenyl)propan-2-ol] | < 100
CC(C)(O)c1ccc(-c2nc(C3CC[C@H](NS(=O)(=O)C4CC4)C3)n3c2cnc2[nH]ccc23)cc1 (some centres unmarked) [N.1.51] | < 100
C=C(C)c1ccc(-c2nc(C3CC[C@H](NS(=O)(=O)C4CC4)C3)n3c2cnc2[nH]ccc23)cc1 (some centres unmarked) [N.1.52] | 100 to 1000
CC(C)(O)c1ccc(-c2ncn3c2cnc2[nH]ccc23)cc1 [N.1.53] | < 100
COc1ccc(-c2nc(C)n3c2cnc2[nH]ccc23)cc1 [N.1.54] | < 100
COc1ccc2c(c1)c(-c1nc(C)n3c1cnc1[nH]ccc13)cn2C [N.1.55] | 100 to 1000
Cc1ccc(-c2nc(C)n3c2cnc2[nH]ccc23)c2cc[nH]c12 [N.1.57] | 1000 to 10000
CC(C)(O)c1ccc(-c2nc(C(F)(F)F)n3c2cnc2[nH]ccc23)cc1 [N.1.58] | 100 to 1000
CN(C)c1nc(-c2ccc(C(C)(C)O)cc2)c2cnc3[nH]ccc3n12 [N.1.59] | < 100
CCc1c[nH]c2ncc3c(-c4ccc(C(C)(C)O)cc4)nn(C)c3c12 [N.1.60] | 1000 to 10000
CS(=O)(=O)c1ccc(-c2nc([C@H]3CCCNC3)n3c2cnc2[nH]ccc23)cc1 [N.1.61] | 100 to 1000
CS(=O)(=O)c1ccc(-c2nc(C3CCCN(C(=O)CCO)C3)n3c2cnc2[nH]ccc23)cc1 (centres unmarked) [N.1.62] | 1000 to 10000
COCCC(=O)N1CCCC(c2nc(-c3ccc(S(C)(=O)=O)cc3)c3cnc4[nH]ccc4n23)C1 (centres unmarked) [N.1.63] | 1000 to 10000
